Values of other authors, collected in patent US20190022132A1, “TREATMENT OR PREVENTION OF PULMONARY CONDITIONS WITH CARBON MONOXIDE” (PROTERRIS, INC., priority 2013, published 2019).

What was measured:
brain = details: inhalation, rats
[1] = CO alveolar concentration of 25 ppm
[2] = tested on: models of acute lung injury; details: early timepoints; effect not sustained beyond the first 6 hours
[3] = Phase I and Phase II human trials

## [C-]#[O+] [CO, carbon monoxide]
brain
  oxidative damage in the brain: can cause oxidative damage in the brain
[1]
  time to reach an equilibration point: about 20 hours
[2]
  airway neutrophil count and lung injury: decrease airway neutrophil count and lung injury at early timepoints
[3]
  tolerability: well tolerated
